Reference: publication PMC9090415, “Discovery of small molecule inhibitors of Plasmodium falciparum apicoplast DNA polymerase” (Journal of Enzyme Inhibition and Medicinal Chemistry, 2022)

Target: P. falciparum apicoplast DNA polymerase (Pf-apPOL) (Plasmodium falciparum, UniProt Q8ILY1)
Test: Fluorescence-based high-throughput DNA polymerase assay (molecular beacon), primary screen and dose-response
Assay type: biochemical
Conditions: for DNA Pol: unit not given, 90 min, 10 µM; for IC50: supplemental file 2, sheet IC50 nontoxic compounds, Pf-apPOL
In short: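 Single-point screening used 10 µM compound with 20 nM polymerase, 20 nM hairpin substrate and 6 µM dNTPs for 90 min at 25 °C. Confirmatory titrations (2.5–80 µM) followed fluorescence at three times, and IC50 was derived from a fit including a cooperativity term n.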

Sequence of P. falciparum apicoplast DNA polymerase (Pf-apPOL) (Q8ILY1 entry or part of it): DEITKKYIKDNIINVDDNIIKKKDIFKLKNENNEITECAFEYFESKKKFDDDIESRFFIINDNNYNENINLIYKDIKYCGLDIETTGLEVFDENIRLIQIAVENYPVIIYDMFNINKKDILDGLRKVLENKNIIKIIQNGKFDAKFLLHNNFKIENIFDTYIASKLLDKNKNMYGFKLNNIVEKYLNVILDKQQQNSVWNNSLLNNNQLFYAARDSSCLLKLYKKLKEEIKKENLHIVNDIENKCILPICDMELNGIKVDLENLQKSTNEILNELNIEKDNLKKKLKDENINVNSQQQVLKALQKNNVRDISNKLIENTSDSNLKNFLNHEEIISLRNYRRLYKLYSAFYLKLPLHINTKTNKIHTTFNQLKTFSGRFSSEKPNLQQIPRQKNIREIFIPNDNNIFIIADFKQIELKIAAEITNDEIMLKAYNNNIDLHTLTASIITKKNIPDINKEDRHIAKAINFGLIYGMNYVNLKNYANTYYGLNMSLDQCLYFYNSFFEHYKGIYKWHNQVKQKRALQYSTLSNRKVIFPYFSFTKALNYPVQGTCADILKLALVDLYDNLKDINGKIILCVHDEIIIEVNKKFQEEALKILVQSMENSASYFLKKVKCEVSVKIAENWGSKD

SMILES: CSC1=C(C#N)C(=C(C#N)C#N)NC(c2ccccc2)=N1 [Molecule 2, CSc1nc([nH]c(=C(C#N)C#N)c1C#N)c1ccccc1]
- DNA Pol ('DNA Pol' of the 186 hits list (primary screen result)): 97
- % inhibition Apo pol 10' (DRC-1, concentration 2.5): 13.8022%
- % inhibition Apo pol 10' (DRC-1, concentration 5): 41.8918%
- % inhibition Apo pol 10' (DRC-1, concentration 10): 81.1404%
- % inhibition Apo pol 10' (DRC-1, concentration 20): 90.9481%
- % inhibition Apo pol 10' (DRC-1, concentration 40): 95.8628%
- % inhibition Apo pol 10' (DRC-1, concentration 80): 96.566%
- % inhibition Apol 90' (DRC-1, concentration 2.5): 8.793%
- % inhibition Apol 90' (DRC-1, concentration 5): 34.1727%
- % inhibition Apol 90' (DRC-1, concentration 10): 79.1809%
- % inhibition Apol 90' (DRC-1, concentration 20): 88.8682%
- % inhibition Apol 90' (DRC-1, concentration 40): 93.6444%
- % inhibition Apol 90' (DRC-1, concentration 80): 97.3798%
- % inhibition apPOL 180' (DRC-1, concentration 2.5): 3.214%
- % inhibition apPOL 180' (DRC-1, concentration 5): 23.1824%
- % inhibition apPOL 180' (DRC-1, concentration 10): 72.8695%
- % inhibition apPOL 180' (DRC-1, concentration 20): 86.4873%
- % inhibition apPOL 180' (DRC-1, concentration 40): 92.4303%
- % inhibition apPOL 180' (DRC-1, concentration 80): 97.316%
- % inhibition Apo pol 5' (DRC-2, concentration 2.5): 8%
- % inhibition Apo pol 5' (DRC-2, concentration 5): 21%
- % inhibition Apo pol 5' (DRC-2, concentration 10): 38%
- % inhibition Apo pol 5' (DRC-2, concentration 20): 53%
- % inhibition Apo pol 5' (DRC-2, concentration 40): 57%
- % inhibition Apo pol 5' (DRC-2, concentration 80): 60%
- % inhibition Apol 40' (DRC-2, concentration 5): 25%
- % inhibition Apol 40' (DRC-2, concentration 10): 47%
- % inhibition Apol 40' (DRC-2, concentration 20): 65%
- % inhibition Apol 40' (DRC-2, concentration 40): 69%
- % inhibition Apol 40' (DRC-2, concentration 80): 76%
- % inhibition ApPOL 90' (DRC-2, concentration 2.5): 9%
- % inhibition ApPOL 90' (DRC-2, concentration 5): 22%
- % inhibition ApPOL 90' (DRC-2, concentration 10): 46%
- % inhibition ApPOL 90' (DRC-2, concentration 20): 66%
- % inhibition ApPOL 90' (DRC-2, concentration 40): 70%
- % inhibition ApPOL 90' (DRC-2, concentration 80): 79%
- % inhibition apPOL 180' (DRC-2, concentration 2.5): 2.48%
- % inhibition apPOL 180' (DRC-2, concentration 5): 13%
- % inhibition apPOL 180' (DRC-2, concentration 10): 36%
- % inhibition apPOL 180' (DRC-2, concentration 20): 61%
- % inhibition apPOL 180' (DRC-2, concentration 40): 67%
- % inhibition apPOL 180' (DRC-2, concentration 80): 80%
- DNA Pol (primary screen value of the library well): 97

SMILES: CSC1=C(C#N)C(=C(C#N)C#N)NC(c2ccccc2)=N1 [Molecule 2]
- IC50: 5.66 µM

SMILES: O=C1N=C(Nc2cccc(Cl)c2Cl)S/C1=C\c1ccco1 [Molecule 3]
- IC50: 4.99 µM
